Assay results taken from paper PMC3684613 (PLoS ONE, 2013).
Like-named read-outs stand apart in the source and are kept apart here.

Tests used:
[1] = tested on: P. falciparum 3D7; set-up: method as in ChEMBL-NTD; settings: ref ChEMBL-NTD, cited from earlier work
[2] = tested on: P. falciparum 3D7; assay: DAPI stain fluorescent high content imaging assay, P. falciparum 3D7 (confirmatory screen, Avery); settings: for inhibition of growth at 5 µM / EC50 / inhibition of growth at 2 µM: Plasmodium falciparum; for inhibition of growth at 5 µM: 3D7, read-out: percent_inh @ 5 uM; for EC50: 3D7, read-out: EC50_nM; for inhibition of growth at 2 µM: 3D7, read-out: percent_inh @ 2 uM
[3] = values follow the order of the source (GNF; GSK; StJude)
[4] = original screening data, source (GSK, GNF, StJude), several values separated by ';' in order of sources

SMILES | EC50 [2] [nM] | inhibition of growth at 5 µM [2] [%] | other results
Cc1ccc(C)c(-c2csc(Nc3ccc(C)c(C)c3)n2)c1 [MMV007654] | – | 94 | EC50 [1, 3]: 493 nM
CCCCCCOC(=O)C1=C(C)NC(=O)NC1c1ccccc1F (stereo not drawn) [MMV007686] | 106 | 95 | EC50 ([1]; source GNF (GNF-Pf id)): 6760 nM
COc1ccc(C(C)=O)cc1N1C(=O)C2C(C1=O)C1(c3ccccc3)C(=O)C2(c2ccccc2)C(c2ccc(C)cc2)=C1c1ccc(C)cc1 (stereo not drawn) [MMV007695] | 179 | 96 | EC50 ([1]; source GNF (GNF-Pf id)): 2460 nM
CCCCc1c(CCC)c(=N)c2ccccc2n1C [MMV007764] | 716 | 77 | EC50 [1, 3]: 311 nM
CCOc1ccccc1NC(=O)CN1CCN(C(=O)c2ccco2)CC1 [MMV007791] | – | 83 | EC50 [1, 4]: 5460 nM
COc1nc(Nc2ccc(C(C)C)cc2)nc(OC)n1 [MMV007808] | 1140 | 88 | EC50 [1, 4]: 677 nM
COc1ccc2c(c1)OC(O)(C(F)(F)C(F)(F)F)CC2=O (stereo not drawn) [MMV007839] | 283 | – | EC50 ([1]; source GNF (GNF-Pf id)): 442 nM
CCCCN(CCCC)S(=O)(=O)c1ccc(NC(=O)c2ccco2)cc1 [MMV007881] | – | 78 | EC50 [1, 4]: 1420 nM
CCCCOc1ccc(C(=O)Nc2cc(C)on2)cc1 [MMV007906] | – | 73 | EC50 [1, 4]: 3160 nM
Cc1ccc(Nc2nc(-c3ccccn3)cs2)cc1 [MMV007907] | 350 | 79 | EC50 ([1]; source GNF): 407 nM
CCOc1ccc(CCNC(=O)c2cccs2)cc1OCC [MMV007978] | – | 95 | EC50 [1, 4]: 890 nM
CN1CCN(c2c3c(c(C#N)c4nc5ccccc5n24)CCC3)CC1 [MMV008127] | 4000 | – | EC50 [1, 4]: 1180 nM; inhibition of growth at 2 µM [2]: 42%
O=C(O)C1Cc2c([nH]c3ccccc23)C(c2ccc(Cl)cc2Cl)N1 (stereo not drawn) [MMV008138] | 350 | – | EC50 ([1]; source GNF (GNF-Pf id)): 1020 nM; EC50 ([1]; source GSK (TCMDC id)): 954 nM
Cc1c(C)n(Cc2ccc(F)cc2)c2ccc(C(=O)NCc3ccco3)cc12 [MMV008149] | – | 52 | EC50 ([1]; source GNF): 78.2 nM
CN1C=C(c2ccc3ccccc3n2)C(c2c[nH]c3ccccc23)c2ccccc21 (stereo not drawn) [MMV008160] | 552 | 95 | EC50 [1, 3]: 1140 nM
COc1cc(OC)cc(N2C(=O)N(Cc3ccc(C(C)(C)C)cc3)c3ccccc3S2(=O)=O)c1 [MMV008173] | 1430 | 97 | EC50 ([1]; source GNF (GNF-Pf ids)): 3750 nM
COc1ccc2nc(C)cc(Nc3cccc(O)c3)c2c1 [MMV008212] | 969 | 98 | EC50 [1, 4]: 228 nM

SMILES | EC50 [2] [nM] | inhibition of growth at 5 µM [2] [%] | other results
Oc1c2c(nc3cc(-c4ccccc4)nn13)CCCC2 [MMV008270] | – | 77 | EC50 [1, 4]: 1930 nM
CCOC(=O)c1cnc2c(C)cc(C)cc2c1Nc1ccc(OC)c(OC)c1 [MMV008294] | 232 | 96 | EC50 ([1]; source GNF (GNF-Pf id)): 1780 nM
CCCc1c(CC)c(=N)c2ccccc2n1C [MMV008416] | 242 | 69 | EC50 ([1]; source GNF (GNF-Pf id)): 762 nM
COc1ccc(C2C(C(=O)Nc3cccc(OC)c3)c3ccccc3C(=O)N2C2CCCCC2)cc1 (stereo not drawn) [MMV008455] | 1180 | 97 | EC50 ([1]; source GNF (GNF-Pf ids)): 1110 nM
CCN1CCN(c2c(C(=O)c3ccccc3)cnc3cc(OC)c(OC)cc23)CC1 [MMV008474] | – | 59 | EC50 ([1]; source GNF (GNF-Pf ids)): 3020 nM
CCCn1c(=N)c(C(=O)NC2CCCCC2)cc2c(=O)n3cccc(C)c3nc21 [MMV008829] | 1110 | 96 | EC50 ([1]; source GNF): 460 nM
CCOc1cc2c(cc1OCC)C(c1cc(OC)c(O)cc1Cl)NCC2 (stereo not drawn) [MMV008956] | 370 | 98 | EC50 ([1]; source GNF (GNF-Pf id)): 362 nM; EC50 ([1]; source GSK (TCMDC id)): 748 nM
O=C(CCc1ccccc1)c1ccccc1OCC(O)CN1CCCCC1 (stereo not drawn) [MMV009015] | 676 | 97 | EC50 ([1]; source GNF): 881 nM
CCN(CC)c1ccc(NC(=O)c2cccs2)cc1 [MMV009060] | – | 88 | EC50 ([1]; source GNF): 414 nM
OC(CNC1CCCCC1)Cn1c2ccccc2c2ccccc21 (stereo not drawn) [MMV009063] | 293 | 93 | EC50 ([1]; source GNF (GNF-Pf id)): 483 nM; EC50 ([1]; source GSK (TCMDC id)): 991 nM
O=C1c2ccc3c4c(ccc(c24)C(=O)N1CCCCO)C(=O)N(CCCCO)C3=O [MMV009085] | 795 | 97 | EC50 [1, 3]: 354 nM
CCN(CC)S(=O)(=O)c1ccc(-c2csc(Nc3ccc(C)c(C)c3)n2)cc1 [MMV009108] | 641 | 97 | EC50 [1, 4]: 2100 nM
CC1CCN(Cc2c(O)ccc3cc(-c4nc5ccccc5s4)c(=O)oc23)CC1 [MMV009127] | 1130 | 91 | EC50 ([1]; source GNF (GNF-Pf ids)): 12500 nM
CCN1CCN(c2cc(C)c3cc(NC(=O)c4ccc(OC)c(OC)c4)ccc3n2)CC1 [MMV019074] | – | 99 | EC50 ([1]; source GSK): 1030 nM
CCOc1cccc(C(=O)Nc2ccc(-c3nc4ccccc4[nH]3)cc2)c1 [MMV019202] | – | – | EC50 [1, 4]: 1010 nM; % inh. At 2.5 uM ([2]; 2.5 uM (Comment column; solubility issue at 5 uM)): 97%
CCC1(C)CC(CCNCc2ccccc2O)(c2ccc(C)cc2)CCO1 (stereo not drawn) [MMV019406] | 142 | 97 | EC50 ([1]; source GSK (TCMDC id)): 38.8 nM
c1ccc2c(NCCCCCCNc3c4c(nc5ccccc35)CCCC4)c3c(nc2c1)CCCC3 [MMV019555] | 376 | 100 | EC50 ([1]; source GSK (TCMDC ids)): 196 nM

Continued, in another order:

EC50 [2] [nM] | SMILES | inhibition of growth at 5 µM [2] [%] | other results
242 | Cc1cc(Nc2ccc3ccccc3c2)n2ncnc2n1 [MMV011099] | – | EC50 ([1]; source GSK (TCMDC id)): 173 nM
212 | Cc1cc(Nc2ccc(Cl)cc2)n2nc(C(F)(F)F)nc2n1 [MMV011256] | – | EC50 ([1]; source GSK (TCMDC id)): 117 nM
946 | CC(C)(C)c1ccc(C2CC3=Nc4ccccc4N(C(=O)c4ccccc4Cl)C(c4ccc(F)cc4)C3=C(O)C2)cc1 (stereo not drawn) [MMV011436] | 96 | EC50 [1, 3]: 2630 nM
326 | COC(=O)c1ccc(C2C3=C(O)CC(c4ccc(F)cc4)CC3=Nc3ccccc3N2C(=O)c2ccccc2)cc1 (stereo not drawn) [MMV011438] | 98 | EC50 [1, 3]: 332 nM
516 | COc1ccc(C(=O)Nc2nonc2-c2ccc(OC)c(OC)c2)cc1Cl [MMV011567] | 92 | EC50 ([1]; source GNF): 1780 nM; EC50 ([1]; source GSK): 675 nM
1180 | CCOC(=O)C1CCN(C(=O)CN2C(=O)c3ccccc3C2c2c[nH]c3ccccc23)CC1 (stereo not drawn) [MMV011576] | 98 | EC50 [1, 4]: 519 nM
646 | Oc1ccc2ccccc2c1CNc1nc2ccccc2[nH]1 [MMV011832] | 83 | EC50 [1, 3]: 652 nM
842 | Nc1ccc(-c2nc3cc(Oc4ccc(Oc5ccc6[nH]c(-c7ccc(N)cc7)nc6c5)cc4)ccc3[nH]2)cc1 [MMV011895] | 97 | EC50 ([1]; source GNF): 288 nM
854 | COc1cccc(Nc2nc(NCCO)c3ccccc3n2)c1 [MMV011944] | – | EC50 ([1]; source GNF): 115 nM; EC50 ([1]; source GSK): 151 nM
693 | Cc1cc(NC(=O)c2ccc(-c3ccccc3)cc2)no1 [MMV018984] | 95 | EC50 [1, 4]: 1020 nM
1010 | COCCNCC(O)Cn1c2ccc(Cl)cc2c2cc(Cl)ccc21 (stereo not drawn) [MMV019017] | – | EC50 [1, 4]: 52 nM
1300 | COc1cccc(-c2nn(C)c3sc(C(=O)NCCN4CCN(c5ccccc5F)CC4)cc23)c1 [MMV019064] | 91 | EC50 ([1]; source GSK): 955 nM
140 | COc1ccccc1CNC(=O)CCn1c(=O)[nH]c2ccsc2c1=O [MMV019066] | 67 | EC50 ([1]; source GSK (TCMDC id)): 1040 nM
400 | Cc1cccc(Nc2nc(N)c3ccccc3n2)c1 [MMV019110] | – | EC50 ([1]; source GSK (TCMDC id)): 574 nM; inhibition of growth at 2 µM [2]: 97%
625 | CCN(Cc1ccccc1)C1CCN(Cc2cc(Br)ccc2O)CC1 [MMV019127] | 97 | EC50 [1, 4]: 823 nM
4000 | COc1cccc(Nc2nc(N)c3ccccc3n2)c1 [MMV019199] | – | EC50 [1, 3]: 934 nM; inhibition of growth at 2 µM [2]: 94%
450 | O=C(Nc1ccc(-c2nc3cc4ccccc4cc3[nH]2)cc1)c1cccc(Br)c1 [MMV019241] | 93 | EC50 ([1]; source GSK (TCMDC ids)): 363 nM
170 | COc1ccc(-n2ccnc2SCC(=O)Nc2cc(C)ccc2C)c(OC)c1 [MMV019258] | 95 | EC50 ([1]; source GSK (TCMDC id)): 205 nM
614 | Cc1sc2ncnc(Sc3nc4ccccc4[nH]3)c2c1C [MMV019266] | 100 | EC50 [1, 4]: 255 nM
669 | Cn1c(=O)c2cc(C(=O)NCCCN3CCCCCC3)sc2c2ccccc21 [MMV019313] | 97 | EC50 ([1]; source GSK): 689 nM
1110 | COc1ccc(N2CCN(C(CNC(=O)C3CCCCC3)c3ccc4c(c3)OCO4)CC2)cc1 (stereo not drawn) [MMV019662] | 97 | EC50 ([1]; source GSK): 566 nM
1080 | O=C(Nc1ccc(N2CCN(Cc3ccccc3)CC2)cc1)c1cccs1 [MMV019670] | 59 | EC50 [1, 4]: 769 nM
934 | COc1ccc(C2NCCc3c2[nH]c2ccccc32)cc1CN1CCN(c2ccc(F)cc2)CC1 (stereo not drawn) [MMV019690] | 97 | EC50 ([1]; source GSK (TCMDC ids)): 776 nM
735 | O=C(Nc1ccc(N2CCCCC2)c(Cl)c1)c1ccc(Br)o1 [MMV019700] | 96 | EC50 [1, 4]: 549 nM
